Reference: ChEMBL document CHEMBL5528066, “Discovery of Novel N-(Anthracen-9-ylmethyl) Benzamide Derivatives as ZNF207 Inhibitors Promising in Treating Glioma” (J Med Chem, 2024)
Calls of active or inactive are those of the source. The rule behind the calls is not given here.

How the values were obtained:
[1] = system: U-251; assay: Inhibition of sphere formation in human U-251MG cells at 1 uM measured after 10 days in well containing 1 cells by microscopic analysis; format: functional, cell-based; details: time 10.0 day
[2] = Toxicity in female C57BL/6 mouse assessed as change in cellular structure of intestine at 45 mg/kg, po administered once a day for 2 weeks by H and E staining based analysis; format: organism-based; details: in vivo, 336 h
[3] = Drug concentration in male Sprague-Dawley rat heart at 45 mg/kg, po measured after 8 hrs by LC-MS/MS analysis; format: ADME, organism-based; details: read-out: Ct
[4] = system: H4; assay: Inhibition of sphere formation in human H4 cells at 4 uM measured after 10 days in well containing 10 cells by microscopic analysis; format: functional, cell-based; details: time 10.0 day
[5] = system: U-251; assay: Inhibition of sphere formation in human U-251MG cells at 8 uM measured after 10 days in well containing 1 cells by microscopic analysis; format: functional, cell-based; details: time 10.0 day
[6] = Drug concentration in female Sprague-Dawley rat stomach at 45 mg/kg, po measured after 8 hrs by LC-MS/MS analysis; format: ADME, organism-based; details: read-out: Ct
[7] = Toxicity in male C57BL/6 mouse assessed as change in cellular structure of liver at 45 mg/kg, po administered once a day for 2 weeks by H and E staining based analysis; format: organism-based; details: in vivo, 336 h
[8] = Toxicity in female C57BL/6 mouse assessed as change in cellular structure of stomach at 45 mg/kg, po administered once a day for 2 weeks by H and E staining based analysis; format: organism-based; details: in vivo, 336 h
[9] = system: Hs 683; assay: Inhibition of colony formation in human Hs 683 cells assessed as reduction in colony area at 5 uM treated on day 1 and measured after 14 days by crystal violet staining based microscopic analysis relative to control; format: functional; details: Hs 683, 336 h, time 14 day
[10] = system: H4; assay: Inhibition of sphere formation in human H4 cells at 2 uM measured after 10 days in well containing 10000 cells by microscopic analysis; format: functional, cell-based; details: time 10.0 day
[11] = system: LN-229; assay: Antitumor activity against human LN-229 cells xenografted in BALB/c nude mouse assessed as tumor growth delay by measuring tumor volume at 15 mg/kg, po administered once a day and measured every 2 days for 49 days (reference value: 700 […]); format: functional; details: time 49 day
[12] = system: U-251; assay: Inhibition of colony formation in human U-251MG cells assessed as reduction in colony area at 2.5 uM treated on day 1 and measured after 14 days by crystal violet staining based microscopic analysis relative to control; format: functional; details: U-251, 336 h, time 14 day
[13] = Toxicity in male C57BL/6 mouse assessed as change in cellular structure of kidney at 45 mg/kg, po administered once a day for 2 weeks by H and E staining based analysis; format: organism-based; details: in vivo, 336 h
[14] = system: LN-229; assay: Antiproliferative activity against human LN-229 cells assessed as inhibition of cell growth measured after 72 hrs by CCK-8 assay; format: functional, cell-based; details: LN-229, 72 h
[15] = system: H4; assay: Inhibition of colony formation in human H4 cells assessed as reduction in colony area at 5 uM treated on day 1 and measured after 14 days by crystal violet staining based microscopic analysis relative to control; format: functional; details: H4, 336 h, time 14 day
[16] = system: H4; assay: Inhibition of sphere formation in human H4 cells assessed as fold reduction in sphere initiating frequency at 4 uM incubated for 10 days by microscopic analysis relative to control; format: functional; details: time 10 day
[17] = Toxicity in female C57BL/6 mouse assessed as change in cellular structure of brain at 45 mg/kg, po administered once a day for 2 weeks by H and E staining based analysis; format: organism-based; details: in vivo, 336 h
[18] = Toxicity in male C57BL/6 mouse assessed as change in cellular structure of thymus at 45 mg/kg, po administered once a day for 2 weeks by H and E staining based analysis; format: organism-based; details: in vivo, 336 h
[19] = Drug uptake in Sprague-Dawley rat blood at 10 to 90 ng/ml, po administered as single dose and measured after 8 hrs by LC-MS/MS analysis; format: ADME, organism-based; details: in vivo, dose 10-90 ng/ml
[20] = system: LN-229; assay: Inhibition of sphere formation in human LN-229 cells assessed as fold reduction in sphere initiating frequency at 4 uM incubated for 10 days by microscopic analysis relative to control; format: functional; details: time 10 day
[21] = system: U-251; assay: Inhibition of sphere formation in human U-251MG cells at 8 uM measured after 10 days in well containing 10 cells by microscopic analysis; format: functional, cell-based; details: time 10.0 day
[22] = system: LN-229; assay: Inhibition of sphere formation in human LN-229 cells at 2 uM measured after 10 days in well containing 10 cells by microscopic analysis; format: functional, cell-based; details: time 10.0 day
[23] = system: Hs 683; assay: Inhibition of sphere formation in human Hs 683 cells at 4 uM measured after 10 days in well containing 10 cells by microscopic analysis; format: functional, cell-based; details: time 10.0 day
[24] = system: LN-229; assay: Inhibition of cell migration in human LN-229 cells assessed as reduction in wound closure ability at 5 uM measured after 48 hrs by wound healing assay relative to control; format: functional
[25] = system: LN-229-Luc; assay: Antitumor activity against human Ln-229-Luc cells xenografted in BALB/c nude mouse assessed as increase in overall survival time at 45 mg/kg, po administered once a day and measured after 3 to 31 days; format: functional, organism-based; details: time 3-31 day
[26] = system: U-251; assay: Inhibition of sphere formation in human U-251MG cells incubated for 168 hrs by microscopic analysis; format: functional, cell-based; details: U-251, 168 h
[27] = system: LN-229-Luc; assay: Antitumor activity against human Ln-229-Luc cells xenografted in BALB/c nude mouse assessed as reduction in tumor load at 45 mg/kg, po administered once a day and measured on day 25 by bioluminescence imaging analysis relative to control; format: functional; details: time 25 day
[28] = system: U-251; assay: Inhibition of sphere formation in human U-251MG cells at 2 uM measured after 10 days in well containing 1000 cells by microscopic analysis; format: functional, cell-based; details: time 10.0 day
[29] = system: Hs 683; assay: Inhibition of sphere formation in human Hs 683 cells at 8 uM measured after 10 days in well containing 10 cells by microscopic analysis; format: functional, cell-based; details: time 10.0 day
[30] = system: H4; assay: Inhibition of colony formation in human H4 cells assessed as reduction in number of cell clones treated on day 1 and measured after 14 days by crystal violet staining based microscopic analysis; format: functional; details: dose 0.625-5 µM, time 14.0 day
[31] = system: H4; assay: Inhibition of sphere formation in human H4 cells incubated for 168 hrs by microscopic analysis; format: functional, cell-based; details: H4, 168 h
[32] = molecular target: T1, BUB3-interacting and GLEBS motif-containing protein ZNF207 (Homo sapiens, UniProt O43670); assay: Binding affinity to ZNF207 in human U-251MG cells assessed as thermal stabilization by measuring melting temperature at 30 uM incubated for 3 hrs by CETSA (reference value: 48.7 degreeC); format: cell-based
[33] = system: LN-229; assay: Inhibition of colony formation in human LN-229 cells assessed as reduction in colony area at 2.5 uM treated on day 1 and measured after 14 days by crystal violet staining based microscopic analysis relative to control; format: functional; details: LN-229, 336 h, time 14 day
[34] = molecular target: T1, BUB3-interacting and GLEBS motif-containing protein ZNF207; assay: Binding affinity to ZNF207 in human H4 cells assessed as thermal stabilization by measuring melting temperature at 30 uM incubated for 3 hrs by CETSA (reference value: 48.9 degreeC); format: cell-based
[35] = system: LN-229; assay: Inhibition of cell migration in human LN-229 cells assessed as reduction in wound closure ability at 5 uM measured after 24 hrs by wound healing assay relative to control; format: functional

T1 sequence (O43670 whole entry): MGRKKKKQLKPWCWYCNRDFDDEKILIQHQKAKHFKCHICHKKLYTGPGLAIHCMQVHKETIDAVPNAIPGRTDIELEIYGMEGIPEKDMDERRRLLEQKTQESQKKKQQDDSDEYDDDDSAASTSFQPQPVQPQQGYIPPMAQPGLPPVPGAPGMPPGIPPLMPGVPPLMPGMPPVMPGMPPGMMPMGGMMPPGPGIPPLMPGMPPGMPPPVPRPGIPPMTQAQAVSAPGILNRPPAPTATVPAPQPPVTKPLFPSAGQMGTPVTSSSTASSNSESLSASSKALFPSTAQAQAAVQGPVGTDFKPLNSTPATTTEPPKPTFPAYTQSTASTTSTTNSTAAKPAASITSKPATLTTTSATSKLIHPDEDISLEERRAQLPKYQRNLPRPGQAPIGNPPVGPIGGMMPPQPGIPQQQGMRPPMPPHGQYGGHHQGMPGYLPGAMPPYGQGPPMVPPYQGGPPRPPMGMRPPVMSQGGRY

concentration at 8 h [3]: 193 ng/g | concentration at 8 h [6]: 4370 ng/g | Drug uptake [19]: Active | IC50 [26]: 870 nM | IC50 [31]: 740 nM | Tm [32]: 53.9 °C | Tm [34]: 50.8 °C
Compound: N#CC1(C(=O)NCCC2CCN(Cc3ccccc3)CC2)CC2(Br)c3ccccc3C1c1ccccc12 (racemic)
inhibition [1]: Active | Activity [2]: Non-Toxic | inhibition [4]: Active | inhibition [5]: Active | Activity [7]: Non-Toxic | Activity [8]: Non-Toxic | inhibition at 5 µM [9]: 100% | inhibition [10]: inactive | Activity [11]: 280 mm3 | inhibition at 2.5 µM [12]: 100% | Activity [13]: Non-Toxic | IC50 [14]: 4990 nM | inhibition at 5 µM [15]: 100% | fold change (FC) [16]: 32.7 | Activity [17]: Non-Toxic | Activity [18]: Non-Toxic | fold change (FC) [20]: 36.42 | inhibition [21]: Active | inhibition [22]: Active | inhibition [23]: Active | inhibition at 5 µM [24]: 28.4% | Activity [25]: Active | fold change (FC) [27]: 7.6 | inhibition [28]: inactive | inhibition [29]: Active | inhibition [30]: Dose-Dependent Effect | inhibition at 2.5 µM [33]: 100% | inhibition at 5 µM [35]: 16.6%
